Experimental data as given in ChEMBL document CHEMBL3886567, “Fused tricyclic compounds as Raf kinase inhibitors” (2016).

How the values were obtained:
[1] = target: Serine/threonine-protein kinase B-raf (Homo sapiens, UniProt P15056, V600E); test: (§1) Raf IC50 Assay: Compounds disclosed herein were tested against B-Raf (V600E) (PV3849, from Invitrogen) or C-Raf (Y340D/Y341D) (PV3805, from Invitrogen) in a time-resolved fluorescence energy transfer assay. The assay was carried out in reactions (10 uL) containing 0.0625 nM B-Raf or 0.5 nM C-Raf, 25 mM Tris pH7.4, 10 mM MgCl2, 0.5 mM EGTA, 0.5 mM […], 5 mM beta-glycerophosphate, 0.01% Triton X-100, 2.5 mM DTT, 0.1% BSA, 0.1 mM ATP, 13.7 nM GST-tagged MEK1 (Full-length protein with K97R mutation, recombinant protein purified from bacterial expression system) and 0-5 uM compounds disclosed herein (final concentration of 1% DMSO). The enzyme was incubated with the compounds at room temperature for 60 minutes and the reactions were initiated by the addition of ATP and GST-MEK1. After incubating at room temperature for 60 minutes, an equal volume of stop buffer containing 25 mM Tris pH7.4, 400 mM KF, 50 mM EDTA, 0.01% BSA, 0.01% Triton X-100, 1 test of Eu3+ Cryptate-conjugated rabbit polyclonal antibody anti-Phospho MEK1/2 (Ser217/221) and 1 test of d2-conjugated mouse monoclonal antibody anti-glutathione S-transferase was added to stop the reactions. Plates were sealed and incubated at room temperature for 2 hours, and then the TR-FRET signals were read on BMG PHERAstar FS instrument. The IC50 for each compound was calculated by non linear regression by Graphpad Prism software.
Serine/threonine-protein kinase B-raf, sequence (P15056 2-766 V600E limits assumed): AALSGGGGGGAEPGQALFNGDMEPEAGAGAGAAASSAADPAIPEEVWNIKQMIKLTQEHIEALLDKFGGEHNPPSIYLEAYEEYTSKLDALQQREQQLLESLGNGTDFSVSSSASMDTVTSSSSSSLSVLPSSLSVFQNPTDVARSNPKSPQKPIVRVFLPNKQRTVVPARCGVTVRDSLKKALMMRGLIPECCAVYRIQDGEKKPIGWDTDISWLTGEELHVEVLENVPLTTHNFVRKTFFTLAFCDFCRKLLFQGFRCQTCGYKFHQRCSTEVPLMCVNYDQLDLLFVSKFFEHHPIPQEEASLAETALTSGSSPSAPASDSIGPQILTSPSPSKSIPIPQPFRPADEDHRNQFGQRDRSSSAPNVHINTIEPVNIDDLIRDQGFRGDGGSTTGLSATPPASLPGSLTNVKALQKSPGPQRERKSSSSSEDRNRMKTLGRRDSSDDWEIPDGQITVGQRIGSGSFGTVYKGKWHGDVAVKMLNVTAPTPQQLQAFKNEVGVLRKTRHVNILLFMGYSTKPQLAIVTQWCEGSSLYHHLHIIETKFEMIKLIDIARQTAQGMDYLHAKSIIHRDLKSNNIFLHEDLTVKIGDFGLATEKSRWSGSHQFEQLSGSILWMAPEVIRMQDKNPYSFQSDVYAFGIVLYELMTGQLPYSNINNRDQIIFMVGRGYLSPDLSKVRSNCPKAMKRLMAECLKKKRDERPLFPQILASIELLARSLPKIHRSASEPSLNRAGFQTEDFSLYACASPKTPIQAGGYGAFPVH

[2] = target: RAF proto-oncogene serine/threonine-protein kinase (Homo sapiens, UniProt P04049, Y340D/Y341D); test: as §1
RAF proto-oncogene serine/threonine-protein kinase, sequence (P04049 whole entry Y340D/Y341D): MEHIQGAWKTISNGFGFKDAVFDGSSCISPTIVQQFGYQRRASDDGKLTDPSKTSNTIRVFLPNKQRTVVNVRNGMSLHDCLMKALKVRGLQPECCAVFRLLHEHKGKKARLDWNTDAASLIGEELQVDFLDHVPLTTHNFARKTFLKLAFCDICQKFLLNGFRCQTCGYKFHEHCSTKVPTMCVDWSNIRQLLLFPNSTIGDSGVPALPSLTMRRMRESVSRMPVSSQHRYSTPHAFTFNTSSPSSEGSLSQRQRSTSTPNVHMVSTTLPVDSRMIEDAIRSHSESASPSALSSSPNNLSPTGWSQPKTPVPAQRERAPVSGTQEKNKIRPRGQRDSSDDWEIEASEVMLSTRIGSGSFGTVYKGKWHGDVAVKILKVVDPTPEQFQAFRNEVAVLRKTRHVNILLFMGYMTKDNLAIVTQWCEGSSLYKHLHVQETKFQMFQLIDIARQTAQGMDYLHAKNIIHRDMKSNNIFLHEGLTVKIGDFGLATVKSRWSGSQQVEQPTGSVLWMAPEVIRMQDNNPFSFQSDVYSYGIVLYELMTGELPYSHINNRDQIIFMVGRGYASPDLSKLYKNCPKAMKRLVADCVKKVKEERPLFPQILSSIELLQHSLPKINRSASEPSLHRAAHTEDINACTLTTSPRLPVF

| Compound | IC50 [1] [nM] | IC50 [2] [nM] |
| --- | --- | --- |
| O=C1CCc2c(Oc3ccc4c(c3)C3C(O4)C3c3nc4ccc(C(F)(F)F)cc4[nH]3)ccnc2N1 (racemic) | 7.2 | 1.4 |
| O=C1CCc2c(Oc3ccc4c(c3)C3C(O4)C3c3nc4ccc(-c5ccccc5)cc4[nH]3)ccnc2N1 (racemic) | 232 | 81 |
| O=C1CCc2c(Oc3ccc4c(c3)C3C(C4)C3c3nc4ccc(C(F)(F)F)cc4[nH]3)ccnc2N1 (racemic) | 72 | 12 |
| O=C1CCc2c(Oc3ccc4c(c3)C3C(O4)C3c3nc4cccc(Cl)c4[nH]3)ccnc2N1 (racemic) | 16 | < 0.25 |
| O=C1CCc2c(ncc(Cl)c2Oc2ccc3c(c2)C2C(O3)C2c2nc3ccc(C(F)(F)F)cc3[nH]2)N1 (racemic) | > 1000 | 432 |
| O=C1CCc2c(Oc3ccc4c(c3)C3C(O4)C3c3nc4cc(Cl)c(C(F)(F)F)cc4[nH]3)ccnc2N1 (racemic) |  | 5 |
